Assay results from patent publication US11871713B2, “Rice cultivar designated ‘PVL02’” (Board of Supervisors of Louisiana State University and …, priority 2019, dated 2024).

Tested on: ‘PVL02’ rice
Assay: Herbicide tolerance of rice cultivar 'PVL02'
Assay type: in vivo, Oryza sativa
Conditions: rice variety ‘PVL02’ carrying plastidic ACCase I1781(Am)L; rate not given
Description: ‘PVL02’ is an early maturing, long-grain rice variety that is tolerant to ACCase herbicides. For example, ‘PVL02’ is tolerant to Quizalofop-P-ethyl, the generic name for ethyl (R)-2-[4-(6-chloroquinoxalin-2-yl) oxy)phenoxy]propionate, which is sold under the tradename Provisia™ herbicide. PVL02 has excellent milling potential, very low chalk, and a grain length-width ratio of 2.8. ‘PVL02’ was developed using a pedigree selection system at the Louisiana State University Agricultural Center's H. Rouse Caffey Rice Research Station (HRCRRS) in Crowley, Louisiana ‘PVL02’ was selected from the cross Cheniere/BASF 1-5, a cross that was made at the HRCRRS in 2012. ‘Cheniere’ is a commercially-available cultivar. An earlier experimental designation for the ‘PVL02’ line was PVL-108.
The ‘PVL02’ line was developed from the bulk of a single F3 line (14P2980) made at the Puerto Rico winter rice nursery in 2014. ‘PVL02’ was evaluated in a Provisia preliminary yield trial at the HRCRRS in 2014 and 2015, under the experimental designation 14PVL108, before being entered into the Louisiana statewide commercial/advanced yield testing program in 2016-2018.

CCOC(=O)[C@@H](C)Oc1ccc(Oc2cnc3cc(Cl)ccc3n2)cc1 [Quizalofop-P-ethyl]
tolerance of the rice variety to the herbicide: tolerant
